Reference: patent US20230183647A1, “METHOD FOR GENERATING FUNCTIONAL SKELETAL MUSCLE FIBERS INNERVATED BY MOTONEURONS” (ASSOCIATION FRANCAISE CONTRE LES MYOPATHIES (AFM), priority 2020, published 2023)
“Also recorded” adds a separate entry of the source.

Assays:
[1] = tested on: hiPSC-derived innervated myofibers; assay: Transient Calcium influx (Calcium handling) in hiPSC-derived innervated myofibers after drug addition; format: cell-based, human; details: for Calcium release: cells at D45, single addition
Procedure: A-D. We measured the transient Calcium influx in control myofibers prior to drug addition (0 hr) and at different time points after a single addition of different concentrations of each drug. Violin plots display the number of influx per minute and per fiber (n>50). Statistical significance was determined using ANOVA multiple comparison test followed by Brown-Forsythe and Welch correction and comparison to the basal condition (prior to drug addition). A. 0; 2 and 20 μM for Glutamate, B. 0; 1 and 10 μM for Salbutamol. C. 0; 0.5 and 1 mM for Carisoprodol. D. 0; 10 and 100 μM for Mexiletine.
Calcium transients were measured after addition to the cell culture medium of FLUO-8AM fluorescent Ca^2+ indicator (AAT Bioquest). Cells were incubated for 30 min at 37° c in DM+I medium containing 5 μM Fluo8-AM and 0.04% Pluronic acid before imaging on a Fast Imaging Observer system (Axio Observer.Z1/7; Zeiss) with a 10× lens (10×/0.30 M27 DIC I EC Plan-Neofluar; […]). Fluorescence was excited at 488 nm and emission collected at >509 nm. Images were acquired as time series. Different regions were tracked to record the fluorescent intensity at a 10× magnification during 30 seconds and an interval of 200,0 ms corresponding to 151 frames. Analysis was performed using the Zen pro software (Zeiss). ROI was created for selected fibers then intensity mean for each fiber was exported and Calcium transients were calculated by counting the number of peaks intensity for each graph.
For drug treatment, cells were seeded and differentiated in 6 to 12-well plates for 45 days. We tested the activity of Mexiletine (M2727, Sigma Aldrich, 10; 100 μM diluted in methanol), Carisoprodol (C8759, Sigma Aldrich, […]; […] diluted in ethanol), Salbutamol (S8260, Sigma Aldrich, 1 μM; 10 μM, diliuted in methanol) and L-Glutamic acid potassium salt monohydrate (G1501, Sigma Aldrich, 2 μM; 20 μM diluted in H2O) added at 0.1% in the culture medium on fiber contractions. Cell contractions were captured as described for Calcium handling measurements.
To evaluate the potential application of hiPSC-derived innervated myofibers as a preclinical model for drug testing, we tested the response to different classes of pharmaceutical agents by real time video microscopy and Calcium handling analysis. Cells at D45 were treated for different durations with different concentrations of each molecule at (FIG. 8A-D).

[2] = tested on: hiPSC-derived myofibers; format: cell-based, human

## CCCC(C)(COC(N)=O)COC(=O)NC(C)C (centres unmarked) [Carisoprodol]
[1]; 0.5 to 1 mM, cells at D45
  muscle contraction (Calcium influx): reduces muscle contraction 3 to 4 hrs

## CC(C)(C)NCC(O)c1ccc(O)c(CO)c1 (centres unmarked) [Salbutamol]
[1]; 1 μM and 10 μM, cells at D45
  Ca2+ handling: decreases Ca^2+ handling as early as 4 hours

## N[C@@H](CCC(=O)[O-])C(=O)[O-].O.[K+].[K+] [Glutamate, L-Glutamic acid potassium salt monohydrate]
[1]; 2 μM
  Calcium release: did not observe any difference
[1]; 20 μM
  Calcium release: increased activity 20 to 30 minutes

## Alpha Bungarotoxin
[2]
  cell contraction after drug addition (mean number of contractions): irreversibly blocked; also recorded: irreversibly inhibits cell contraction

## Cc1cccc(C)c1OCC(C)N (centres unmarked) [Mexiletine]
[1]; 10 μM, cells at D45
  Calcium handling: decrease in Calcium handling 2 hrs
[1]; 100 μM, cells at D45
  Calcium handling: sharp decrease 1 to 2 hrs

## NC1=N[C@H](O)[C@H]2[C@H]3O[C@]4(O)O[C@@H]([C@@H](O)[C@@]2(N1)[C@@H]4O)[C@]3(O)CO [Tetrodotoxin]
[2]
  cell contraction after drug addition (mean number of contractions): irreversibly blocked; also recorded: irreversibly inhibits cell contraction
